Experiment: Cyclic voltammetry (CV) in MeCN electrolyte solution
Type: physicochemical
Conditions: for range over which the redox couples are observed (estimation of the Vcell): symmetric battery configuration assumed
Method: Cyclic voltammetry (CV) measurements were used to determine the E1/2 values for 2-OTf and 3-OTf, and those measurements were performed in 0.1 Bu4NBF4 MeCN solution. Five redox couples, corresponding to 8 electron transfer (ET) events were observed over the potential range for 2-OTf and 3-OTf, respectively (FIGS. 3A and 3B). The electrochemistry of 2 is expected to be the same as 2-OTF, although 2-OTf has different solubility. The range of about 1.8 V over which the redox couples are observed provides an estimation of the Vcell for a battery which could be constructed using 2^+ as the analyte, if the battery is constructed with a symmetric configuration where 2 is the analyte for both the cathode and anode.
Cyclic voltammograms (CVs) were recorded in a nitrogen-filled glovebox with a CH Instruments Electrochemical Analyzer Model 620D or 1400 with a glassy carbon working electrode (CH Instruments, nominal surface area of 0.071 cm^2), a platinum wire auxiliary electrode, and an Ag/AgNO3 (0.001M) non-aqueous reference electrode with a Vycor tip. All potentials are referenced to the SCE couple, and ferrocene was used as an external standard where the E1/2 of ferrocene/ferrocenium is +0.40 V vs. SCE in 0.1 M Bu4NPF6 MeCN. Bu4NPF6 was recrystallized from ethanol and placed under vacuum for 72 hours before electrolyte solutions were made. Electrolyte solutions were stored over 3 Å molecular sieves for at least 48 hours before use. Sieves were activated by heating under vacuum at 270° C. for at least 72 hours. UV-Vis spectra were obtained using a 1 cm cuvette using an Agilent 8453 UV-vis spectrophotometer.

[1] = 0.1 Bu4NBF4 MeCN solution, glassy carbon working electrode

Substance	electron transfer (ET) events observed over the potential range (five redox couples) (0.1 Bu4NBF4 MeCN solution)	range over which the redox couples are observed (estimation of the Vcell)	E1/2 of the 3^0/− couple [1]	E1/2 of the 3^2+/+ couple [1]	E1/2 of the 3^6+/2+ four-electron couple [1]	E1/2 of the 3^+/0 couple [1]	E1/2 of the 3^−/2− couple [1]
[(FcI2P^−)2Al)]OTf [Complex 2-OTf]	8	about 1.8 V					
[(^EtOFcI2P^−)2Al)](OTf) [Complex 3-OTf]	8	1.9 V	−1.02 V vs SCE	+0.00 V vs SCE	+0.60 V vs SCE	−0.33 V vs SCE	−1.39 V vs SCE

From US12258358B1, “Ferrocene-substituted organometallic complexes” (THE REGENTS OF THE UNIVERSITY OF CALIFORNIA, priority 2023, dated 2025)
